Columns and labels:
Type in all cases: cell-based
[1] = target: T1, GLUT3 (Homo sapiens, UniProt P11169); test: glycolysis assay in DLD1 GLUT1−/− cells (rely on GLUT3); conditions: DLD1-KO (GLUT1−/−) cells; 10 μM oligomycin, one hour
T1 construct: endogenous in cells; host or cells: DLD1 GLUT1−/− (knock-out) cancer cells
T1 sequence (P11169 1-496): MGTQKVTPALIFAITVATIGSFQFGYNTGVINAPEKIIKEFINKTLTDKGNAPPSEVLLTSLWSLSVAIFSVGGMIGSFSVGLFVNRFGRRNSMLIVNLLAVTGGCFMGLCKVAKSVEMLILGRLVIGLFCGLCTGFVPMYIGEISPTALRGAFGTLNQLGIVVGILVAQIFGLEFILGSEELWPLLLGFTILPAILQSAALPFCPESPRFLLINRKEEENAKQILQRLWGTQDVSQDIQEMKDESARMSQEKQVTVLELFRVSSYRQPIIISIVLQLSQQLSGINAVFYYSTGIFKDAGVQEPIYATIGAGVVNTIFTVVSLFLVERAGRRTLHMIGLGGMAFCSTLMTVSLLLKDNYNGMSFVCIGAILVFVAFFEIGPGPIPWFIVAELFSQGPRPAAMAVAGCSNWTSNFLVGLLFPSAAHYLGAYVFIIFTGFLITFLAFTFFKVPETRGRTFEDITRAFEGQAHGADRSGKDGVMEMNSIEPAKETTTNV
Method: (§1) Cells were treated with GLUT inhibitors plus oligomycin and subsequently ATP levels were determined using Cell Titer Glo. […] FIG. 1B reports the IC50 of glycolysis inhibition for selected compounds.
(§2) Accordingly, we have investigated the use of inhibitors of GLUT transporters against activated pro-inflammatory immune cells, including but not limited to activated human CD4+ T cells. In order to understand what GLUT transporters are required to sustain glycolysis in activated T cells, we first utilized the syngeneic cancer cell lines DLD1 WT and DLD GLUT1−/− that rely on GLUT1 and GLUT3 expression, respectively, for glucose transport. Within this system, we have identified small molecules that simultaneously have the property of inhibiting both GLUT1 and GLUT3 mediated glucose transport. In addition, we have confirmed the GLUT1-selective nature of a published small molecule inhibitor of GLUT1 (Chem Med Chem. 2016 Oct. 19; 11(20):2261-2271).
(§3) Determination of glucose uptake/GLUT activity (glycolysis assay): HT1080 cells, DLD1 cells (WT and GLUT1−/−) and human CD4+ T cells were plated in 96-well plates. Cells were exposed to the combination of 10 μM Oligomycin (to block mitochondrial-derived ATP) and the glucose uptake inhibitors disclosed herein for one-hour, after which glycolytically-derived ATP was measured with the Cell Titer-Glo assay kit (Promega). Dose-response curves of the glucose uptake inhibitors disclosed herein were used to determine the IC50 for GLUT activity.

[2] = target: T2, GLUT1 (Homo sapiens, UniProt P11166); test: glycolysis assay in DLD1 WT cells (rely on GLUT1); conditions: DLD1-WT cells; 10 μM oligomycin, one hour
T2 construct: endogenous in cells; host or cells: DLD1 WT cancer cells
T2 sequence (P11166 1-492): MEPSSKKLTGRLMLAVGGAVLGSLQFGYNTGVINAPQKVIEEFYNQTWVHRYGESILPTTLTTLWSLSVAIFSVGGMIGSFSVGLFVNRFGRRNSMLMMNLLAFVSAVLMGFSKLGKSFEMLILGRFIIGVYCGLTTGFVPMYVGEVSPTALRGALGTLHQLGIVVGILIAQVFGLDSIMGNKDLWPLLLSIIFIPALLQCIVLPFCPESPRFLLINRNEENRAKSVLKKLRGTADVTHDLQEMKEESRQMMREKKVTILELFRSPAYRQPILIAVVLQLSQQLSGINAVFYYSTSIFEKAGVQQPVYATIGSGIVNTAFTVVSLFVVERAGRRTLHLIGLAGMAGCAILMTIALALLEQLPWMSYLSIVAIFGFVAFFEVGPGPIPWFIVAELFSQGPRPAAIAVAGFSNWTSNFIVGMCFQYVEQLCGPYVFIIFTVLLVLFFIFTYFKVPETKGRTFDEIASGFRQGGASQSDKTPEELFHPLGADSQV
Method: as §1, §2, §3

[3] = tested on: GLUT; test: glycolysis assay (oligomycin + Cell Titer-Glo ATP readout) in HT1080 cells; conditions: 10 μM oligomycin, one hour, glycolytically-derived ATP
Source text: The combination of inhibitors of both oxidative phosphorylation and glycolysis synergistically suppress cellular ATP levels. Therefore, our assay utilizes the combination of our glucose uptake inhibitors with oligomycin, a well-characterized inhibitor of ATP synthase. Because oligomycin inhibits ATP derived from oxidative phosphorylation, any remaining ATP production is derived from glycolysis. By reading out cellular ATP levels using the Promega
Titer Glo kit, we can assess the extent of glycolysis inhibition by our glucose uptake inhibitors. Using this experimental set-up in HT1080 cancer cells, we determined the IC50 of glycolysis inhibition for the compounds.
as §3

Structure (SMILES)	IC50 [1]	IC50 [2]	IC50 [3]
COc1ccc2nc(-c3cccc(OCC(=O)NC4CC(F)(F)C4)c3)nc(Nc3ccc(-c4cn[nH]c4)cc3)c2c1 [Ex. 15, 2-(3-(4-((4-(1H-pyrazol-4-yl)phenyl)amino)-6-methoxyquinazolin-2-yl)phenoxy)-N-(3,3-difluorocyclobutyl)acetamide]	86.6 nM	352 nM	183 nM
CCOc1ccc2nc(-c3cccc(OCC(=O)N[C@@H](C)CC)c3)nc(Nc3ccc(-c4cn[nH]c4)cc3)c2c1 [Ex. 35, (S)-2-(3-(4-((4-(1H-Pyrazol-4-yl)phenyl)amino)-6-ethoxyquinazolin-2-yl)phenoxy)-N-(sec-butyl)acetamide]	94.2 nM	130 nM	134 nM
CC[C@@H](C)NC(=O)COc1cccc(-c2nc(Nc3ccc(-c4cn[nH]c4)cc3)c3ccc(F)cc3n2)c1 [Ex. 55, (R)-2-(3-(4-((4-(1H-pyrazol-4-yl)phenyl)amino)-7-fluoroquinazolin-2-yl)phenoxy)-N-(sec-butyl)acetamide]	238 nM	192 nM	190 nM
CCOc1ccc2nc(-c3cccc(OCC(=O)N[C@H](C)CC)c3)nc(Nc3ccc(-c4cn[nH]c4)cc3)c2c1 [Ex. 36, (R)-2-(3-(4-((4-(1H-Pyrazol-4-yl)phenyl)amino)-6-ethoxyquinazolin-2-yl)phenoxy)-N-(sec-butyl)acetamide]	130 nM	116 nM	137 nM
CCOc1ccc2nc(-c3cccc(OCC(=O)NC4CC4)c3)nc(Nc3ccc(-c4cn[nH]c4)cc3)c2c1 [Ex. 1, 2-(3-(4-((4-(1H-pyrazol-4-yl)phenyl)amino)-6-ethoxyquinazolin-2-yl)phenoxy)-N-cyclopropylacetamide]	129 nM	52 nM	242 nM
CC(C)NC(=O)COc1cccc(-c2nc(Nc3ccc(-c4cn[nH]c4)cc3)c3cc(OC(C)C)ccc3n2)c1 [Ex. 41, 2-(3-(4-((4-(1H-pyrazol-4-yl)phenyl)amino)-6-isopropoxyquinazolin-2-yl)phenoxy)-N-isopropylacetamide]	191 nM	48.8 nM	107 nM
CCCOc1ccc2nc(-c3cccc(OCC(=O)NC(C)C)c3)nc(Nc3ccc(-c4cn[nH]c4)cc3)c2c1 [Ex. 32, 2-(3-(4-((4-(1H-Pyrazol-4-yl)phenyl)amino)-6-propoxyquinazolin-2-yl)phenoxy)-N-isopropylacetamide]	305 nM	178 nM	188 nM

Compounds with a lower IC50 [1], results first:

IC50 [1]	IC50 [2]	IC50 [3]	Structure (SMILES)
59.2 nM	62.1 nM	53.5 nM	COCCOc1ccc2nc(-c3cccc(OCC(=O)NC(C)C)c3)nc(Nc3ccc(-c4cn[nH]c4)cc3)c2c1 [Ex. 31, 2-(3-(4-((4-(1H-Pyrazol-4-yl)phenyl)amino)-6-(2-methoxyethoxy)quinazolin-2-yl)phenoxy)-N-isopropylacetamide]
58.9 nM	34.4 nM	46 nM	CCC(C)NC(=O)COc1cccc(-c2nc(Nc3ccc(-c4cn[nH]c4)cc3)c3cc(OCCF)ccc3n2)c1 (stereo not drawn) [Ex. 43, 2-(3-(4-((4-(1H-pyrazol-4-yl)phenyl)amino)-6-(2-fluoroethoxy)quinazolin-2-yl)phenoxy)-N-(sec-butyl)acetamide]
43.9 nM	99.5 nM	89 nM	CCOc1ccc2nc(-c3cccc(OCC(=O)NC(C)CC)c3)nc(Nc3ccc(-c4cn[nH]c4)cc3)c2c1 (stereo not drawn) [Ex. 18, 2-(3-(4-((4-(1H-pyrazol-4-yl)phenyl)amino)-6-ethoxyquinazolin-2-yl)phenoxy)-N-(sec-butyl)acetamide]
40.6 nM	25.2 nM	25.1 nM	CC[C@H](C)NC(=O)COc1cccc(-c2nc(Nc3ccc(-c4cn[nH]c4)cc3)c3cc(OCCOC)ccc3n2)c1 [Ex. 45, (S)-2-(3-(4-((4-(1H-pyrazol-4-yl)phenyl)amino)-6-(2-methoxyethoxy)quinazolin-2-yl)phenoxy)-N-(sec-butyl)acetamide]

Reference: US11071735B2, “Treatment of inflammatory conditions and autoimmune diseases with glucose uptake inhibitors” (Kadmon Corporation, LLC, priority 2017, dated 2021)
